From US20100168103A1, “DIARYL PIPERIDINE COMPOUNDS AS CALCIUM CHANNEL BLOCKERS” (NEUROMED PHARMACEUTICALS LTD., priority 2006, published 2010)
Like-named read-outs stand apart in the source and are kept apart here.

Biological target: T1, rat brain N-type calcium channel subunits (α1B+α2δ+β1b cDNA subunits) (Rattus norvegicus, UniProt Q02294)
T1 construct: expressed in transfected cells; host or cells: HEK 293
Experiment: N-type calcium channel block, whole cell patch clamp in transfected HEK 293 cells
Format: cell-based
Details: holding potential −80 mV to +10 mV
Procedure: N-type calcium channel blocking activity was assayed in human embryonic kidney cells, HEK 293, stably transfected with the rat brain N-type calcium channel subunits (α1B+α2δ+β1b cDNA subunits). Alternatively, N-type calcium channels (α1B+α2δ+β1b cDNA subunits), L-type channels (α1C+α2δ+β1b cDNA subunits) and P/Q-type channels (α1A+α2δ+β1b cDNA subunits) were transiently expressed in HEK 293 cells. Briefly, cells were cultured in Dulbecco's modified eagle medium (DMEM) supplemented with 10% fetal bovine serum, 200 U/ml penicillin and 0.2 mg/ml streptomycin at 37° C. with 5% CO2. At 85% confluency cells were split with 0.25% trypsin/1 mM EDTA and plated at 10% confluency on glass coverslips. At 12 hours the medium was replaced and the cells transiently transfected using a standard calcium phosphate protocol and the appropriate calcium channel cDNA's. Fresh DMEM was supplied and the cells transferred to 28° C./5% CO2. Cells were incubated for 1 to 2 days prior to whole cell recording.
Whole cell patch clamp experiments were performed using an Axopatch 200B amplifier (Axon Instruments, Burlingame, Calif.) linked to a personal computer equipped with pCLAMP software. The external and internal recording solutions contained, respectively, 5 mM BaCl2, 10 mM MgCl2, 10 mM HEPES, 40 mM TEACl, 10 mM glucose, 87.5 mM CsCl (pH 7.2) and 108 mM CsMS, 4 mM MgCl2, 9 mM EGTA, 9 mM HEPES (pH 7.2). Currents were typically elicited from a holding potential of −80 mV to +10 mV using Clampex software (Axon Instruments). Typically, currents were first elicited with low frequency stimulation (0.067 Hz) and allowed to stabilize prior to application of the compounds. The compounds were then applied during the low frequency pulse trains for two to three minutes to assess tonic block, and subsequently the pulse frequency was increased to 0.2 Hz to assess frequency dependent block. Data were analyzed using Clampfit (Axon Instruments) and SigmaPlot 4.0 (Jandel Scientific).

[1] = low frequency stimulation 0.067 Hz (tonic block), 5 mM BaCl2, read-out: IC50 @ 0.067 Hz
[2] = pulse frequency 0.2 Hz (frequency dependent block), 5 mM BaCl2, read-out: IC50 @ 0.2 Hz

T1 sequence (Q02294 whole entry): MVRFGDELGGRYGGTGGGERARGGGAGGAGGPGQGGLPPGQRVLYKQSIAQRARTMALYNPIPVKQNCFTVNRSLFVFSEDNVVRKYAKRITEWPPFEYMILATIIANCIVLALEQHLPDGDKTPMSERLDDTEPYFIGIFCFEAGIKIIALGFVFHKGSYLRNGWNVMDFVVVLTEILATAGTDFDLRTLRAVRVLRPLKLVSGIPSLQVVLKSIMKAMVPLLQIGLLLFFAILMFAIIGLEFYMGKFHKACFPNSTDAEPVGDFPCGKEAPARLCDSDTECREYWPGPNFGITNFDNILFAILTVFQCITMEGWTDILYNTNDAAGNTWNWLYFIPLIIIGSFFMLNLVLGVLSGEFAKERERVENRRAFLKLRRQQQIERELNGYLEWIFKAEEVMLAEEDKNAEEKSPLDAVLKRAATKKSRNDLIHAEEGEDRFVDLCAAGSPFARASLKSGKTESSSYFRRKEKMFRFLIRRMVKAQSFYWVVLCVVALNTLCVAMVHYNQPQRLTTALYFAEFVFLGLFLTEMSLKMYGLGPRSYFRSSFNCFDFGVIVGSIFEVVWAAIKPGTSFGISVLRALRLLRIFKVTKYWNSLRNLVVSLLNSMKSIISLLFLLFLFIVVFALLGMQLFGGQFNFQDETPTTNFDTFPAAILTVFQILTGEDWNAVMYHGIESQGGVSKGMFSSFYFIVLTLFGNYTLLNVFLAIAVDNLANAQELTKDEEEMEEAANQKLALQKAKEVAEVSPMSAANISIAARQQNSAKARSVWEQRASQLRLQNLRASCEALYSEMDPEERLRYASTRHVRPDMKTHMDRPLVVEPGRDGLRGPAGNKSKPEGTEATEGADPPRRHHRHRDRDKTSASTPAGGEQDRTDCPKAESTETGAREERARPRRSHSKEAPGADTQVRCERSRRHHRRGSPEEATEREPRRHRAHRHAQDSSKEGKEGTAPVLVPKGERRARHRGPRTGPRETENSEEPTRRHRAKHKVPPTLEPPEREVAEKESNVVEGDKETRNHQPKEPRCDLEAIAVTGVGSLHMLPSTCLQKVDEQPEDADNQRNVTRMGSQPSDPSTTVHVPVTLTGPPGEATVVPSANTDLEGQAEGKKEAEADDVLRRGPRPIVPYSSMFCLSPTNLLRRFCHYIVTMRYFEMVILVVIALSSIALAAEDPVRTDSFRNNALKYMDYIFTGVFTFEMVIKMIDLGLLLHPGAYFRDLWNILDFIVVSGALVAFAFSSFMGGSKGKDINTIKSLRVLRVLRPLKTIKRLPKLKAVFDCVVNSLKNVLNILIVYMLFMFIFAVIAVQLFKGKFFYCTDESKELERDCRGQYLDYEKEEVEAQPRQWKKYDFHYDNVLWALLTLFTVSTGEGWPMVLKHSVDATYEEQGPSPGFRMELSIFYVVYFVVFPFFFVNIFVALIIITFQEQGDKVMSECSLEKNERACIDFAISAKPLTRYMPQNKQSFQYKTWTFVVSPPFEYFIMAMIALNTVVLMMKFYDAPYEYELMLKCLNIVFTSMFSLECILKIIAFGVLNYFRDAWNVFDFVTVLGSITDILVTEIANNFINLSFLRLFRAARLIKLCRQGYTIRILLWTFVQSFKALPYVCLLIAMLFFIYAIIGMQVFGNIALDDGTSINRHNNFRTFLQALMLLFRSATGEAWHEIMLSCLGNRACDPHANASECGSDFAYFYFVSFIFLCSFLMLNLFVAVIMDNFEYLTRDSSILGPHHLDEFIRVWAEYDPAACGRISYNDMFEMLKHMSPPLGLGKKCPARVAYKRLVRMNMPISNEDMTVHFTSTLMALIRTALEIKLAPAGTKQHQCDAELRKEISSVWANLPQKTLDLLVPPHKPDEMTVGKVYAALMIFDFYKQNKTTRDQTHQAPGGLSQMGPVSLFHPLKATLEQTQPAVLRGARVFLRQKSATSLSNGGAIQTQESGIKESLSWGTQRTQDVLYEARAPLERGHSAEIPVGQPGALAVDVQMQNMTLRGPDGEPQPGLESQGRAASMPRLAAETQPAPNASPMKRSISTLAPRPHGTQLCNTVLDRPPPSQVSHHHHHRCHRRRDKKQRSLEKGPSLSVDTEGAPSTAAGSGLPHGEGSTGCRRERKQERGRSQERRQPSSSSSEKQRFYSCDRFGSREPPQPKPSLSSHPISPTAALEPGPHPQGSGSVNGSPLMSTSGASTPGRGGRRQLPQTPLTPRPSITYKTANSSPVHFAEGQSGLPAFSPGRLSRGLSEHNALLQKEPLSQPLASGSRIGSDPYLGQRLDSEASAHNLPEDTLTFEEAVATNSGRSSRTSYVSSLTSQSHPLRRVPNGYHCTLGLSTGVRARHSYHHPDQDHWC
T1 sequence (P54290 25-944 partner limits assumed): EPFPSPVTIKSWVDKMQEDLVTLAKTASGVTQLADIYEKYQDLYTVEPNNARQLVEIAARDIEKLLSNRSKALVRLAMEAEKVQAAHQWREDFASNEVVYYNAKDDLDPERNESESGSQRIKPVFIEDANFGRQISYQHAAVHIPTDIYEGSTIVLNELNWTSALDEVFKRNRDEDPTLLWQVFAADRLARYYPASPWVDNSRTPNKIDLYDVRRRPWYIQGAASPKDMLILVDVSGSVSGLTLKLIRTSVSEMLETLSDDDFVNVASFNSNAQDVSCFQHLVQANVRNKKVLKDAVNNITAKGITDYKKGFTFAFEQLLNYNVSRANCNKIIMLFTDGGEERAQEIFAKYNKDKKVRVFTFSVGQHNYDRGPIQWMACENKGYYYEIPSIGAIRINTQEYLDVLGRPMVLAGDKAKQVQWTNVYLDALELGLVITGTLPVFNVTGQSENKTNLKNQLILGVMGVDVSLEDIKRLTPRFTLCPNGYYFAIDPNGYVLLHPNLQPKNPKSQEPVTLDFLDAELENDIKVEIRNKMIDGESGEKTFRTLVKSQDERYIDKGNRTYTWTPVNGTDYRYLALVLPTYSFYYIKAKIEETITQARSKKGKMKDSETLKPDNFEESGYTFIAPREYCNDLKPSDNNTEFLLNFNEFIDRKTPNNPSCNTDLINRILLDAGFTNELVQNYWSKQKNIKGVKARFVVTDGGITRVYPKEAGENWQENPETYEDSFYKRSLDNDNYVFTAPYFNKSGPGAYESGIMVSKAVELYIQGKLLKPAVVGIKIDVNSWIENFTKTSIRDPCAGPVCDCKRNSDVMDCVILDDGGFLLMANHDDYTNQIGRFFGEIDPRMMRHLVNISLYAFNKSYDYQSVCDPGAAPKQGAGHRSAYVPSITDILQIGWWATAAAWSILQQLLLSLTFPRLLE
T1 sequence (P54290 945-1091 partner limits assumed): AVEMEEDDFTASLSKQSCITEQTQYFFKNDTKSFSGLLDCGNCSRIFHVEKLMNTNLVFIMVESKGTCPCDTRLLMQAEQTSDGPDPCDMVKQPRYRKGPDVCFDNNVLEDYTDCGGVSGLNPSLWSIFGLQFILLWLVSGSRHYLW
T1 sequence (P54283 whole entry partner): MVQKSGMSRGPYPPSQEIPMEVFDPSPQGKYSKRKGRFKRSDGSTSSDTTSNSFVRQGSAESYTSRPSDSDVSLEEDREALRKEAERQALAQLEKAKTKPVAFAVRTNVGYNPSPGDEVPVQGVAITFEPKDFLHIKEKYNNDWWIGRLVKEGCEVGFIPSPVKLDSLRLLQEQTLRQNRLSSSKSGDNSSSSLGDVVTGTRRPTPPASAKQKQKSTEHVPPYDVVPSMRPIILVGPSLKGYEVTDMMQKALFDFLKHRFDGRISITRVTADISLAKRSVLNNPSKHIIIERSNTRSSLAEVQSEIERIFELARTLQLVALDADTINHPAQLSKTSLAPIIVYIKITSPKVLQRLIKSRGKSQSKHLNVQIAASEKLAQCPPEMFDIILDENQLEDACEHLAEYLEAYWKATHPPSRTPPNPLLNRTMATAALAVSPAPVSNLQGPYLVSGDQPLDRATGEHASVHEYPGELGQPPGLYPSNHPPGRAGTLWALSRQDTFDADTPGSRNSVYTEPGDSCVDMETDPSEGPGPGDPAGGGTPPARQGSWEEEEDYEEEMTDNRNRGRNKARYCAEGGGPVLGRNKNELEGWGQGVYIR

| Compound | IC50 [1] [nM] | IC50 [2] [nM] |
| --- | --- | --- |
| COc1ccccc1C(CC(=O)N1CCC(C(c2ccccc2)N2CC(C)NC(C)C2)CC1)c1ccccc1OC (stereo not drawn) [Compound 83, 1-(4-((3,5-dimethylpiperazin-1-yl)(phenyl)methyl)piperidin-1-yl)-3,3-bis(2-methoxyphenyl)propan-1-one] | 3000 | 1570 |
| CC1CN(CC2CCN(C(=O)COC(c3ccccc3)c3ccccc3)CC2)CC(C)N1 (stereo not drawn) [Compound 18, 2-(benzhydryloxy)-1-(4-((3,5-dimethylpiperazin-1-yl)methyl)piperidin-1-yl)ethanone] | 1860 | 1180 |
| CC(C)(C)N1CCN(C(=O)C2CCN(C(=O)CC(c3ccccc3)c3ccccc3)CC2)CC1 [Compound 78, 1-(4-(4-tert-butylpiperazine-1-carbonyl)piperidin-1-yl)-3,3-diphenylpropan-1-one] | > 6450 | > 3340 |
| CC1CN(CC2CCN(C(=O)C[S+]([O-])C(c3ccccc3)c3ccccc3)CC2)CC(C)N1 (stereo not drawn) [Compound 19, 2-(benzhydrylsulfinyl)-1-(4-((3,5-dimethylpiperazin-1-yl)methyl)piperidin-1-yl)ethanone] | 3750 | 2400 |
| CC1CN(C(=O)C2CCN(C(=O)CNC(c3ccccc3)c3ccccc3)CC2)CC(C)N1 (stereo not drawn) [Compound 20, 2-(benzhydrylamino)-1-(4-(3,5-dimethylpiperazine-1-carbonyl)piperidin-1-yl)ethanone] | 8720 | 3000 |
| CN1CCN(C(=O)C2CCN(C(=O)C[S+]([O-])C(c3ccccc3)c3ccccc3)CC2)CC1 (stereo not drawn) [Compound 9, 2-(benzhydrylsulfinyl)-1-(4-(4-methylpiperazine-1-carbonyl)piperidin-1-yl)ethanone] | 2410 | 1800 |
| CN1CCN(CC2CCN(C(=O)COC(c3ccccc3)c3ccccc3)CC2)CC1 [Compound 4, 2-(benzhydryloxy)-1-(4-((4-methylpiperazin-1-yl)methyl)piperidin-1-yl)ethanone] | > 5650 | > 3830 |
| Cc1ccccc1C(CC(=O)N1CCC(C(=O)N2CC(C)NC(C)C2)(c2ccccc2)CC1)c1ccccc1C (stereo not drawn) [Compound 27, 1-(4-(3,5-dimethylpiperazine-1-carbonyl)-4-phenylpiperidin-1-yl)-3,3-di-o-tolylpropan-1-one] | 410 | 240 |
| CN1CCN(C(=O)C2CCN(C(=O)CC(c3ccccc3)c3ccccc3)CC2)CC1 [Compound 12, 1-(4-(4-methylpiperazine-1-carbonyl)piperidin-1-yl)-3,3-diphenylpropan-1-one] | 1260 | 750 |
| CC1CN(C(c2ccccc2)C2CCN(C(=O)CC(c3ccccc3)c3ccccc3)CC2)CC(C)N1 (stereo not drawn) [Compound 55, 1-(4-((3,5-dimethylpiperazin-1-yl)(phenyl)methyl)piperidin-1-yl)-3,3-diphenylpropan-1-one] | 880 | 420 |
| CN1CCN(C(=O)C2(c3ccccc3)CCN(C(=O)CNC(c3ccccc3)c3ccccc3)CC2)CC1 [Compound 36, 2-(benzhydrylamino)-1-(4-(4-methylpiperazine-1-carbonyl)-4-phenylpiperidin-1-yl)ethanone] | > 21200 | > 12500 |
| CN1CCN(C(=O)C2CCN(C(=O)COC(c3ccccc3)c3ccccc3)CC2)CC1 [Compound 8, 2-(benzhydryloxy)-1-(4-(4-methylpiperazine-1-carbonyl)piperidin-1-yl)ethanone] | 5110 | 1730 |
| CC1CN(C(=O)C2(c3ccccc3)CCN(C(=O)CNC(c3ccccc3)c3ccccc3)CC2)CC(C)N1 (stereo not drawn) [Compound 28, 2-(benzhydrylamino)-1-(4-(3,5-dimethylpiperazine-1-carbonyl)-4-phenylpiperidin-1-yl)ethanone] | 2780 | 1610 |
| Cc1ccccc1C(CC(=O)N1CCC(CN2CCCCC2)(c2ccccc2)CC1)c1ccccc1C [Compound 46, 1-(4-phenyl-4-(piperidin-1-ylmethyl)piperidin-1-yl)-3,3-di-o-tolylpropan-1-one] | 320 | 250 |
| Cc1ccccc1C(CC(=O)N1CCC(C(=O)N2CCN(C)CC2)(c2ccccc2)CC1)c1ccccc1C [Compound 37, 1-(4-(4-methylpiperazine-1-carbonyl)-4-phenylpiperidin-1-yl)-3,3-di-o-tolylpropan-1-one] | 380 | 290 |
| O=C(C[S+]([O-])C(c1ccccc1)c1ccccc1)N1CCC(CN2CCCCC2)CC1 (stereo not drawn) [Compound 44, 2-(benzhydrylsulfinyl)-1-(4-(piperidin-1-ylmethyl)piperidin-1-yl)ethanone] | 8400 | 4100 |
| O=C(NC(c1ccccc1)c1ccccc1)N1CCC(CN2CCCCC2)CC1 [Compound 41, N-benzhydryl-4-(piperidin-1-ylmethyl)piperidine-1-carboxamide] | 5210 | 3490 |
| CC1CN(CC2CCN(C(=O)CC(c3ccccc3)c3ccccc3)CC2)CC(C)N1 (stereo not drawn) [Compound 23, 1-(4-((3,5-dimethylpiperazin-1-yl)methyl)piperidin-1-yl)-3,3-diphenylpropan-1-one] | > 4700 | > 3910 |
| CC1CN(C(=O)C2(c3ccccc3)CCN(C(=O)CC(c3ccccc3)c3ccccc3)CC2)CC(C)N1 (stereo not drawn) [Compound 26, 1-(4-(3,5-dimethylpiperazine-1-carbonyl)-4-phenylpiperidin-1-yl)-3,3-diphenylpropan-1-one] | 1310 | 850 |
| CC1CN(C(=O)C2CCN(C(=O)NC(c3ccccc3)c3ccccc3)CC2)CC(C)N1 (stereo not drawn) [Compound 25, N-benzhydryl-4-(3,5-dimethylpiperazine-1-carbonyl)piperidine-1-carboxamide] | > 6490 | 9870 |
| O=C(CNC(c1ccccc1)c1ccccc1)N1CCC(CN2CCCCC2)CC1 [Compound 43, 2-(benzhydrylamino)-1-(4-(piperidin-1-ylmethyl)piperidin-1-yl)ethanone] | 5320 | 5260 |
